These results are taken from patent US11596639B2, “Substituted indole Mcl-1 inhibitors” (Vanderbilt University, priority 2016, dated 2023).

Where two headings read alike, the source gives them in different places.

In assay [1] the target is Mcl-1 (Homo sapiens (Human), UniProt Q07820). The experiment in a line: Fluorescence polarization anisotropy (FPA) competition assay, FITC-Bak or FITC-Bim BH3 peptide. The note with it: read-out: Ki for Inhibition of Mcl-1 by FPA assay. The class given is binding. On the technique in general: Fluorescence polarisation rises when a labelled molecule tumbles more slowly, as on binding a larger partner.

Assay [2] deals with H929 human cancer cell lines. In words: Cellular viability / proliferation (Cell TiterGlo, 72 h). The class given is cell-based. Put shortly:
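Cells were seeded at 1,000 cells/well in medium with 10% FBS and dosed 24 h later with a 2-fold serial dilution of compound (top concentration 50 μM, final DMSO <1%).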
On the technique in general: Cellular ATP, detected with luciferase, serves as a proxy for viable cell number.

Where [3] appears, read: Homo sapiens, NCI-H929, 72 h, read-out: GI50 on cellular proliferation of H929 human cancer cell lines, H929 cells, 72 h, Cell TiterGlo, 10% FBS.

Chain of Mcl-1 (Q07820 172-327): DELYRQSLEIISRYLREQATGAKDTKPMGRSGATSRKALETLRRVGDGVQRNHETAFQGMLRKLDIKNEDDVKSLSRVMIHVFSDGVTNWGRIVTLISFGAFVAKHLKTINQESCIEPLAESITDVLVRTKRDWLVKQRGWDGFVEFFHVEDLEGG

Consider `Cc1cc(OCCCc2c3n(c4c(-c5c(C)nn(C)c5C)c(Cl)ccc24)CCCN(c2cc(C(=O)O)c4cnn(CCN5CCOCC5)c4c2)C3=O)cc(C)c1Cl` [Example 14, 6-[8-Chloro-11-[3-(4-chloro-3,5-dimethyl-phenoxy)propyl]-1-oxo-7-(1,3,5-trimethylpyrazol-4-yl)-4,5-dihydro-3H-[1,4]diazepino[1,2-a]indol-2-yl]-1-(2-morpholinoethyl)indazole-4-carboxylic acid], for which the inhibition constant (Ki) (usually a measure of affinity in units of concentration, obtained from inhibition or displacement) in assay [1] was less than 1 nM. Moreover, the GI50 in assay [2] (setting [3]) was 3200 nM.

In the case of `Cc1cc(OCCCc2c3n(c4c(-c5c(C)nn(CC6CCOCC6)c5C)c(Cl)ccc24)[C@H](C)CN(c2cccc4c(C(=O)O)cn(C)c24)C3=O)cc(C)c1Cl` [Example 128, (R)-7-(7-chloro-10-(3-(4-chloro-3,5-dimethylphenoxy)propyl)-6-(3,5-dimethyl-1-((tetrahydro-2H-pyran-4-yl)methyl)-1H-pyrazol-4-yl)-4-methyl-1-oxo-3,4-dihydropyrazino[1,2-a]indol-2(1H)-yl)-1-methyl-1H-indole-3-carboxylic acid], in assay [1], the Ki was less than 1 nM. Besides, in assay [2] (setting [3]), the GI50 amounted to 410 nM.

Turning to `Cc1cc(OCCCc2c3n(c4c(-c5c(C)nc(CN6CCN(C)CC6)nc5C)c(Cl)ccc24)[C@H](C)CN(c2cn(C)c4ccc(C(=O)O)cc24)C3=O)cc(C)c1Cl` [Example 396, (R)-3-(7-Chloro-10-(3-(4-chloro-3,5-dimethylphenoxy)propyl)-6-(4,6-dimethyl-2-((4-methylpiperazin-1-yl)methyl)pyrimidin-5-yl)-4-methyl-1-oxo-3,4-dihydropyrazino[1,2-a]indol-2(1H)-yl)-1-methyl-1H-indole-5-carboxylic acid], in assay [1], the Ki stood at 1.8 nM. Also, the GI50 in assay [2] (setting [3]) is less than 200 nM.

Regarding `Cc1noc(-c2ccc3c(c2)c(N2C[C@@H](C)n4c(c(CCCOc5cc(C)c(Cl)c(C)c5)c5ccc(Cl)c(-c6c(C)ncnc6C)c54)C2=O)cn3C)n1` [Example 395, (R)-7-Chloro-10-(3-(4-chloro-3,5-dimethylphenoxy)propyl)-6-(4,6-dimethylpyrimidin-5-yl)-4-methyl-2-(1-methyl-5-(3-methyl-1,2,4-oxadiazol-5-yl)-1H-indol-3-yl)-3,4-dihydropyrazino[1,2-a]indol-1(2H)-one], the inhibitory constant (Ki) in assay [1] came out at 2.2 nM. Besides, in assay [2] (setting [3]), the GI50 was found to be 860 nM.

Consider `Cc1cc(OCCCc2c3n(c4c(-c5c(C)nc(COCc6ccccc6)nc5C)c(Cl)ccc24)CCCN(c2cn(C)c4ccc(C(=O)O)cc24)C3=O)cc(C)c1Cl` [Example 294, 3-[7-[2-(benzyloxymethyl)-4,6-dimethyl-pyrimidin-5-yl]-8-chloro-11-[3-(4-chloro-3,5-dimethyl-phenoxy)propyl]-1-oxo-4,5-dihydro-3H-[1,4]diazepino[1,2-a]indol-2-yl]-1-methyl-indole-5-carboxylic acid], for which, in assay [1], the Ki is less than 1 nM. In addition, the GI50 in assay [2] (setting [3]) came to 2000 nM.

With `Cc1cc(OCCCc2c3n(c4c(-c5c(C)ncnc5C)c(Cl)ccc24)[C@H](C)CN(c2cccc4c(C(=O)O)ccnc24)C3=O)cc(C)c1Cl` [Example 225, 8-[(4R)-7-chloro-10-[3-(4-chloro-3,5-dimethyl-phenoxy)propyl]-6-(4,6-dimethylpyrimidin-5-yl)-4-methyl-1-oxo-3,4-dihydropyrazino[1,2-a]indol-2-yl]quinoline-4-carboxylic acid], in assay [1], the Ki is less than 1 nM. Also, the GI50 in assay [2] (setting [3]) was 3300 nM.

`Cc1cc(OCCCc2c3n(c4c(-c5c(C)nn(C)c5C)c(Cl)ccc24)CCCN(c2cc(C(=O)O)cc4c2N(C)CCO4)C3=O)cc(C)c1Cl` [Example 61, 5-[8-chloro-11-[3-(4-chloro-3,5-dimethyl-phenoxy)propyl]-1-oxo-7-(1,3,5-trimethylpyrazol-4-yl)-4,5-dihydro-3H-[1,4]diazepino[1,2-a]indol-2-yl]-4-methyl-2,3-dihydro-1,4-benzoxazine-7-carboxylic acid]: the Ki in assay [1] turned out to be 5.7 nM. Besides, the GI50 in assay [2] (setting [3]) was found to be 8200 nM.

On to `CNC(=O)c1ccc2c(c1)c(N1C[C@@H](C)n3c(c(CCCOc4cc(C)c(Cl)c(C)c4)c4ccc(Cl)c(-c5c(C)nn(C)c5C)c43)C1=O)cn2C` [Example 286, (R)-3-(7-chloro-10-(3-(4-chloro-3,5-dimethylphenoxy)propyl)-4-methyl-1-oxo-6-(1,3,5-trimethyl-1H-pyrazol-4-yl)-3,4-dihydropyrazino[1,2-a]indol-2(1H)-yl)-N,1-dimethyl-1H-indole-5-carboxamide], for which the Ki in assay [1] came out at 3.3 nM. For the same molecule, the GI50 in assay [2] (setting [3]) is 510 nM.

Regarding `COc1ccc(N2C[C@@H](C)n3c(c(CCCOc4cc(C)c(Cl)c(C)c4)c4ccc(Cl)c(-c5c(C)nn(C)c5C)c43)C2=O)c2c1c(C(=O)O)cn2C` [Example 445, (R)-7-(7-Chloro-10-(3-(4-chloro-3,5-dimethylphenoxy)propyl)-4-methyl-1-oxo-6-(1,3,5-trimethyl-1H-pyrazol-4-yl)-3,4-dihydropyrazino[1,2-a]indol-2(1H)-yl)-4-methoxy-1-methyl-1H-indole-3-carboxylic acid], the Ki in assay [1] is 2.2 nM. Besides, the GI50 in assay [2] (setting [3]) is 820 nM.

Regarding `Cc1cc(OCCCc2c3n(c4c(-c5c(C)nn(C)c5C)c(Cl)ccc24)[C@H](C)CN(c2cc(C(=O)O)c4cnn(C(C)C)c4c2)C3=O)cc(C)c1Cl` [Example 131, 6-[(4R)-7-chloro-10-[3-(4-chloro-3,5-dimethyl-phenoxy)propyl]-4-methyl-1-oxo-6-(1,3,5-trimethylpyrazol-4-yl)-3,4-dihydropyrazino[1,2-a]indol-2-yl]-1-isopropyl-indazole-4-carboxylic acid], the Ki in assay [1] was less than 1 nM. Further, in assay [2] (setting [3]), the GI50 was determined as 1900 nM.

As to `Cc1cc(OCCCc2c3n(c4c(-c5c(C)nn(C)c5C)c(Cl)ccc24)[C@H](C)CN(c2cccc4cc(C(=O)O)n(Cc5ccccc5)c24)C3=O)cc(C)c1Cl` [Example 241, 1-Benzyl-7-[(4R)-7-chloro-10-[3-(4-chloro-3,5-dimethyl-phenoxy)propyl]-4-methyl-1-oxo-6-(1,3,5-trimethylpyrazol-4-yl)-3,4-dihydropyrazino[1,2-a]indol-2-yl]indole-2-carboxylic acid], the Ki in assay [1] is less than 1 nM. Besides, in assay [2] (setting [3]), the GI50 amounted to 420 nM.

On to `Cc1cc(OCCCc2c3n(c4c(-c5c(C)ncnc5C)c(Cl)ccc24)[C@H](C)CN(c2cc(C(=O)O)c4ccn(C)c4c2)C3=O)cc(C)c1Cl` [Example 152, 6-[(4R)-7-chloro-10-[3-(4-chloro-3,5-dimethyl-phenoxy)propyl]-6-(4,6-dimethylpyrimidin-5-yl)-4-methyl-1-oxo-3,4-dihydropyrazino[1,2-a]indol-2-yl]-1-methyl-indole-4-carboxylic acid], for which the Ki in assay [1] is less than 1 nM. Further, the GI50 in assay [2] (setting [3]) came out at 850 nM.

On to `Cc1cc(OCCCc2c3n(c4c(-c5c(C)nn(C)c5C)c(Cl)ccc24)[C@H](C)CN(c2cn(C)c4ccc(-c5nnco5)cc24)C3=O)cc(C)c1Cl` [Example 346, (R)-7-Chloro-10-(3-(4-chloro-3,5-dimethylphenoxy)propyl)-4-methyl-2-(1-methyl-5-(1,3,4-oxadiazol-2-yl)-1H-indol-3-yl)-6-(1,3,5-trimethyl-1H-pyrazol-4-yl)-3,4-dihydropyrazino[1,2-a]indol-1(2H)-one], for which the Ki in assay [1] is 5.1 nM. For the same molecule, the GI50 in assay [2] (setting [3]) was determined as 1600 nM.

Consider `CCn1nc2c(N3C[C@@H](C)n4c(c(CCCOc5cc(C)c(Cl)c(C)c5)c5ccc(Cl)c(-c6c(C)nn(C)c6C)c54)C3=O)cccc2c1C(=O)O` [Example 117, (R)-7-(7-chloro-10-(3-(4-chloro-3,5-dimethylphenoxy)propyl)-4-methyl-1-oxo-6-(1,3,5-trimethyl-1H-pyrazol-4-yl)-3,4-dihydropyrazino[1,2-a]indol-2(1H)-yl)-2-ethyl-2H-indazole-3-carboxylic acid], for which, in assay [1], the Ki was less than 1 nM. Further, in assay [2] (setting [3]), the GI50 stood at 390 nM.

As to `COc1cc(C(=O)O)cc(N2CCCn3c(c(CCCOc4cc(C)c(Cl)c(C)c4)c4ccc(Cl)c(-c5c(C)nn(C)c5C)c43)C2=O)c1OCCO` [Example 62, 3-[8-chloro-11-[3-(4-chloro-3,5-dimethyl-phenoxy)propyl]-1-oxo-7-(1,3,5-trimethylpyrazol-4-yl)-4,5-dihydro-3H-[1,4]diazepino[1,2-a]indol-2-yl]-4-(2-hydroxyethoxy)-5-methoxy-benzoic acid], the Ki in assay [1] is less than 1 nM. The GI50 in assay [2] (setting [3]) is 11000 nM.

In the case of `Cc1cc(OCCCc2c3n(c4c(-c5c(C)n[nH]c5C)c(Cl)ccc24)CCCN(c2cccc4cccnc24)C3=O)cc(C)c1Cl` [Example 150, 8-Chloro-11-(3-(4-chloro-3,5-dimethylphenoxy)propyl)-7-(3,5-dimethyl-1H-pyrazol-4-yl)-2-(quinolin-8-yl)-2,3,4,5-tetrahydro-1H-[1,4]diazepino[1,2-a]indol-1-one], the Ki in assay [1] is 13 nM. Also, the GI50 in assay [2] (H929 cells, 72 h, Cell TiterGlo, 10% FBS, read-out: GI50 on cellular proliferation of H929 human cancer cell lines) worked out at 5100 nM.

Take `Cc1cc(OCCCc2c3n(c4c(-c5c(C)nn(C)c5C)c(Cl)ccc24)CCCN(c2cc(C(=O)O)c4cn[nH]c4c2)C3=O)cc(C)c1Cl` [Example 44, 6-[8-chloro-11-[3-(4-chloro-3,5-dimethyl-phenoxy)propyl]-1-oxo-7-(1,3,5-trimethylpyrazol-4-yl)-4,5-dihydro-3H-[1,4]diazepino[1,2-a]indol-2-yl]-1H-indazole-4-carboxylic acid]: the inhibition constant (Ki) in assay [1] is less than 1 nM. In assay [2] (setting [3]), the GI50 was found to be 14000 nM.

With `Cc1cc(OCCCc2c3n(c4c(-c5c(C)nn(C)c5C)c(Cl)ccc24)[C@H](C)CN(c2ccc(F)c4c(C(=O)O)cn(C)c24)C3=O)cc(C)c1Cl` [Example 447, (R)-7-(7-Chloro-10-(3-(4-chloro-3,5-dimethylphenoxy)propyl)-4-methyl-1-oxo-6-(1,3,5-trimethyl-1H-pyrazol-4-yl)-3,4-dihydropyrazino[1,2-a]indol-2(1H)-yl)-4-fluoro-1-methyl-1H-indole-3-carboxylic acid], the Ki in assay [1] was less than 1 nM. For the same molecule, the GI50 in assay [2] (setting [3]) stood at 340 nM.
